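Test compounds were applied to cells in 96-well plates for 48 hours at 5 doses. TGI marks complete inhibition of growth.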
Columns and labels:
Assay in all cases: DTP human tumour cell line panel, 48 h
K-562 leukemia = system: K-562 leukemia
OVCAR-4 ovarian = system: OVCAR-4 ovarian
786-0 renal = system: 786-0 renal
UO-31 renal = system: UO-31 renal
MOLT-4 leukemia = system: MOLT-4 leukemia

Row | SMILES | TGI (K-562 leukemia) | TGI (OVCAR-4 ovarian) | TGI (786-0 renal) | TGI (UO-31 renal) | TGI (MOLT-4 leukemia)
1 | COc1ccc2c(c1)/C(=C\c1cccc(/C=C3/C(=O)Nc4ccc(OC)cc43)n1)C(=O)N2 | 2.02 µM | 3.28 µM | 2.55 µM | 3.81 µM | 0.802 µM
2 | O=C(/C=C\c1ccccc1-c1ccccc1)c1ccccc1 | > 100 µM | > 100 µM | > 100 µM | > 100 µM | > 100 µM
3 | O=c1[nH]n(Cc2ccccc2CCl)c2ccc([N+](=O)[O-])cc12 | > 100 µM | > 100 µM | > 100 µM | > 100 µM | 90.8 µM
4 | COc1ccc(/C=C/[N+](=O)[O-])cc1 | > 100 µM | 38.2 µM | > 100 µM | 41.3 µM | 12.8 µM
5 | CC(C)N1CCCOC(c2ccc([N+](=O)[O-])cc2)O1 (stereo unspecified) | > 100 µM | > 100 µM | > 100 µM | > 100 µM | > 100 µM
6 | COc1ccc(-c2cc(-c3ccco3)c(C#N)c(=S)n2C2OC(CO)C(O)C(O)C2O)cc1 (stereo unspecified) | > 100 µM | > 100 µM | > 100 µM | > 100 µM | > 100 µM
7 | CCCCCNC1=CC(=O)c2ccccc2C1=O | > 100 µM | > 100 µM | 38.9 µM | > 88.6 µM | > 100 µM
8 | CCn1c(SCC(=O)NNC(=S)Nc2ccc(F)cc2)nc2ccccc2c1=O | > 100 µM | > 100 µM | > 100 µM | > 100 µM | > 100 µM
9 | O=c1c2c3c(sc2nc2n1N=CN(c1ccc(Cl)cc1)C2)CCCC3 | > 100 µM | > 100 µM | > 100 µM | > 100 µM | > 100 µM
10 | CC(C)(CCCCC(C)(C)NCC1COc2ccccc2O1)NCC1COc2ccccc2O1 (stereo unspecified) | > 10 µM | > 10 µM | > 10 µM | – | > 10 µM
11 | C(/C=N/NC1=NCCCN1)=N\NC1=NCCCN1 | > 100 µM | > 100 µM | > 100 µM | > 100 µM | > 100 µM
12 | CC(CCC(=O)O)[C@H]1CCC2[C@H]3C(CC(=O)[C@@]21C)[C@@]1(C)CCC(O)C[C@H]1C[C@@H]3O (stereo partly specified) | > 100 µM | > 100 µM | > 100 µM | > 100 µM | > 100 µM
13 | CN1CCN(C(=S)N(C)C(=O)c2cccs2)CC1 | > 100 µM | > 100 µM | > 100 µM | > 100 µM | > 100 µM
14 | CCCCc1ccc(N2C(=O)c3cccnc3S2(=O)=O)cc1 | > 100 µM | > 100 µM | > 100 µM | > 100 µM | > 100 µM
15 | Cc1ccnc2nc3[nH]c4ccccc4c3cc12 | > 100 µM | > 100 µM | 83.7 µM | > 100 µM | > 100 µM
16 | COC(=O)[C@]12CSC[C@H]1C[C@H](c1ccc(N(C)C)cc1)N2 | > 100 µM | > 100 µM | > 100 µM | > 100 µM | > 100 µM
17 | CNC(=S)NNC1=NCCCCN1 | > 100 µM | > 100 µM | > 100 µM | > 100 µM | > 100 µM
18 | Cc1cc(NCC2CC/C(=C\C=C\c3ccccc3)C2=O)no1 (stereo unspecified) | > 100 µM | > 100 µM | > 100 µM | > 100 µM | > 100 µM

Row | SMILES | TGI (K-562 leukemia) | TGI (OVCAR-4 ovarian) | TGI (786-0 renal) | TGI (UO-31 renal) | TGI (MOLT-4 leukemia)
19 | Cc1cc2nc3c(C#N)c(-c4ccccc4)cc(Nc4ccc(F)cc4)n3c2cc1C | – | > 100 µM | 22.5 µM | – | > 100 µM
20 | O=C(/C=C/c1cccs1)c1ccc(C(=O)/C=C/c2cccs2)cc1 | – | > 100 µM | > 100 µM | > 100 µM | > 100 µM
21 | COc1cc(C2S/C(=C/c3ccccc3)C(=O)N2c2ccc([N+](=O)[O-])cc2)cc(OC)c1OC (stereo unspecified) | > 100 µM | > 100 µM | > 100 µM | > 100 µM | > 100 µM
22 | C=C1CC(COc2ccc3ccc(=O)oc3c2)(c2ccccc2)OC1=O (stereo unspecified) | 2.45 µM | 3.22 µM | 2.84 µM | 9.76 µM | 4.16 µM
23 | CC1(C)OC(=O)CC12CCN(Cc1ccccc1)CC2 | > 100 µM | > 100 µM | > 100 µM | > 100 µM | > 100 µM
24 | COC(=O)/C(C#N)=C(\Nc1ccccc1)N1CCCCC1 | > 100 µM | > 100 µM | > 100 µM | > 100 µM | > 100 µM
25 | Cc1n[nH]c(=O)n1/N=C/c1cccnc1 | > 100 µM | > 100 µM | > 100 µM | > 100 µM | > 100 µM
26 | CN(C)CCN1C(=O)c2ccccc2C1(O)c1ccc(Cl)cc1 (stereo unspecified) | > 100 µM | > 100 µM | > 100 µM | > 100 µM | > 100 µM
27 | O=c1[nH]c(=O)n(C2CC(O)C(CO)O2)c2nc3ccc4ccccc4c3nc12 (stereo unspecified) | > 100 µM | > 100 µM | > 100 µM | > 100 µM | 54.3 µM
28 | O=S1(=O)OCCCOS(=O)(=O)C1Br | – | > 100 µM | > 100 µM | > 100 µM | > 100 µM
29 | CCOC(=O)c1c(NC(=O)c2ccc(OC)cc2)sc2c1CCCC2 | > 100 µM | – | > 100 µM | > 100 µM | > 100 µM
30 | CC1(C)N=C(N)N=C(N)N1c1cccc(OCc2cccc([N+](=O)[O-])c2)c1 | > 100 µM | > 100 µM | > 100 µM | > 100 µM | > 100 µM
31 | CSc1ccc(-c2cc(-c3nc4ccccc4[nH]3)nc3[nH]c(-c4nc5ccccc5[nH]4)cc(=O)c23)cc1 | > 100 µM | > 100 µM | > 100 µM | > 100 µM | > 100 µM
32 | C/C(=N/NC(=S)N1CCCC1)c1cccc(/C(C)=N\NC(=S)N2CCCC2)n1 | > 100 µM | – | 2.66 µM | 2.11 µM | 2.18 µM
33 | CCO/C(O)=C(/C(=N)N1CCCC1)C(=O)Nc1ccc(Cl)cc1 | > 100 µM | > 100 µM | > 100 µM | – | > 100 µM
34 | CC(C)N(c1cc2c(cc1F)c(=O)c(C(=O)O)cn2-c1ccc(N2CCN(C)CC2)cn1)C(C)C | > 100 µM | > 100 µM | > 100 µM | > 100 µM | > 100 µM
35 | COc1ccc(C(CC(=O)c2ccccc2)C(=O)c2ccc3c(c2)OCO3)cc1 (stereo unspecified) | > 100 µM | – | > 100 µM | > 100 µM | > 100 µM
